Results: patent publication US8367328B2, “Method for synthesizing DNA” (Takara Bio Inc., priority 1998, dated 2013)

Legend:
KOD DNA Polymerase = target: T1, KOD DNA Polymerase (Thermococcus kodakarensis, UniProt P77933, DEL407-766/DEL852-1388); assay: PCR with KOD DNA Polymerase (α-type) in the presence of acidic substances; format: biochemical, Pyrococcus sp.; settings: 10 kb fragment, 100 pg λDNA, 30 cycles 98°C 5 s–68°C 3 min
T1 construct: purchased TOYOBO CO., LTD
Experimental: (1) Using sodium alginate, sodium hyaluronate (manufactured by Seikagaku Kogyo), or κ carrageenan (manufactured by Sigma), the effects of these acidic substances on α-type DNA polymerase were examined. A reaction mixture comprising λDNA as a template, primers λ1 and λ8 as a primer pair, and KOD DNA Polymerase (manufactured by TOYOBO CO., LTD.) as DNA polymerase was prepared, and PCR was carried out. The composition of the reaction mixture is as follows. Composition of Reaction Mixture: KOD DNA Polymerase Buffer I (manufactured by TOYOBO CO., LTD.) 0.2 mM each of dATP, dCTP, dGTP and dTTP, 0.625 U of KOD DNA Polymerase, 100 pg of λDNA, and 5 pmol each of primers λ1 and λ8 (a final volume being 25 μl). Further, 1 μg or 2.5 μg of sodium alginate, 0.1 μg or 0.5 μg of sodium hyaluronate, or 0.1 μg or 0.25 μg of κ carrageenan was respectively added to the above reaction mixture.
The reaction in 30 cycles was carried out for each of these reaction mixtures, wherein one cycle of reaction comprises a process consisting of 98° C., 5 seconds—68° C., 3 minutes. Thereafter, 5 μl of the resulting reaction mixture was subjected to electrophoresis on 1% agarose gel containing ethidium bromide in an amount of 0.00005%, whereby an amplified fragment was confirmed.
(2) The effects on α-type DNA polymerase were also examined in the same manner as in item (1) above for sodium alginate, κ carrageenan, sodium heparan sulfate (manufactured by Sigma), sodium dermatan sulfate (manufactured by Sigma), potassium polyvinyl sulfate (manufactured by nacalaitesque) or sodium polystyrenesulfonate (two kinds: average molecular weights of 5,400 and 35,000, all manufactured by nacalaitesque). A reaction mixture comprising λDNA as a template, primers λ1 and λ8 as a primer pair, and KOD DNA Polymerase as DNA polymerase was prepared, and PCR was carried out. The composition of the reaction mixture is as follows. Composition of Reaction Mixture: KOD DNA Polymerase Buffer II (manufactured by TOYOBO CO., LTD.) 0.2 mM each of dATP, dCTP, dGTP and dTTP, 1.25 U of KOD DNA Polymerase, 100 pg of λDNA, and 10 pmol each of primers λ1 and λ8 (a final volume being 50 μl). Further, 2.5 μg or 5 μg of sodium alginate, 0.25 μg or 0.5 μg of κ carrageenan, or 125 ng, 250 ng or 375 ng of sodium dermatan sulfate, 500 ng of sodium heparan sulfate, 10 ng of potassium polyvinyl sulfate, 2.5 ng or 5 ng of sodium polystyrenesulfonate (average molecular weight: 5,400), or 5 ng of sodium polystyrenesulfonate (average molecular weight: 35,000) was respectively added to the above reaction mixture.

[1] = target: T2, TaKaRa Taq DNA Polymerase (Thermus aquaticus, UniProt P19821); assay: PCR with TaKaRa Taq DNA Polymerase in the presence of acidic substances; format: biochemical; settings: 1 kb fragment; 100 pg λDNA, primers λ1/λ3, 30 cycles 98°C 10 s–68°C 1 min, 50 μl; amount added 1 μg
T2 construct: purchased Takara Shuzo Co., Ltd
Experimental: Using the sulfated-fucose-containing polysaccharide-F obtained in Example 6 described above or sodium alginate, the effects of these acidic substances imparted on TaKaRa Taq DNA Polymerase (manufactured by Takara Shuzo Co., Ltd.) were examined. In this example, PCR was carried out in normal mode by using TaKaRa PCR Thermal Cycler Personal.
A reaction mixture comprising λDNA as a template, primers λ1 and λ3 as a primer pair, and TaKaRa Taq DNA Polymerase as DNA polymerase was prepared, and PCR was carried out. The composition of the reaction mixture is as follows.
TaKaRa Taq DNA Polymerase buffer, 0.2 mM each of dATP, dCTP, dGTP and dTTP, 1.25 U of TaKaRa Taq DNA Polymerase, 100 pg of λDNA, and 10 pmol each of primers λ1 and λ3 (a final volume being 50 μl). Further, 0.1 ng or 0.25 ng each of the sulfated-fucose-containing polysaccharide-F or 1 μg of sodium alginate was respectively added to the above reaction mixture.
(§1) The reaction was carried out in 30 cycles, wherein one cycle of reaction comprises a process consisting of 98° C., 10 seconds—68° C., 1 minute. After the termination of the reaction, 5 μl of the resulting reaction mixture was subjected to electrophoresis on 1% agarose gel containing ethidium bromide in an amount of 0.00005%, whereby an amplified fragment was confirmed.

KOD dash DNA Polymerase = assay: PCR with KOD dash DNA Polymerase in the presence of acidic substances; format: biochemical; settings: 12 kb fragment; 10 pg λDNA, primers λ1/λ9, 25 cycles 98°C 5 s–68°C 3 min; amount added 0.5 μg
Experimental: (2) The effects of the acidic substances were studied for KOD dash DNA Polymerase (manufactured by TOYOBO CO., LTD.), comprising a combination of DNA polymerase having 3′→5′ exonuclease activity, and DNA polymerase having no such activity. A reaction mixture comprising λDNA as a template, primers λ1 and λ9 as a primer pair was prepared, and PCR was carried out. In the following example, PCR was carried out in Fast mode by using TaKaRa PCR Thermal Cycler Personal (manufactured by Takara Shuzo Co., Ltd.). The composition of the reaction mixture is as follows. Composition of Reaction Mixture: exclusive buffer attached for KOD dash DNA Polymerase, 0.2 mM each of dATP, dCTP, dGTP and dTTP, 10 pg of λDNA, 2.5 U of KOD dash DNA Polymerase, and 10 pmol each of primers λ1 and λ9 (a final volume being 50 μl). Further, 1 ng of the sulfated-fucose-containing polysaccharide-F or 0.5 μg of sodium alginate was respectively added to the above reaction mixture.
as §1, with “25” for “30”, “5” for “10”, “3 minutes.” for “1 minute.”

T1 sequence (P77933 other isoform, or with tags, fused parts or gaps DEL407-766/DEL852-1388): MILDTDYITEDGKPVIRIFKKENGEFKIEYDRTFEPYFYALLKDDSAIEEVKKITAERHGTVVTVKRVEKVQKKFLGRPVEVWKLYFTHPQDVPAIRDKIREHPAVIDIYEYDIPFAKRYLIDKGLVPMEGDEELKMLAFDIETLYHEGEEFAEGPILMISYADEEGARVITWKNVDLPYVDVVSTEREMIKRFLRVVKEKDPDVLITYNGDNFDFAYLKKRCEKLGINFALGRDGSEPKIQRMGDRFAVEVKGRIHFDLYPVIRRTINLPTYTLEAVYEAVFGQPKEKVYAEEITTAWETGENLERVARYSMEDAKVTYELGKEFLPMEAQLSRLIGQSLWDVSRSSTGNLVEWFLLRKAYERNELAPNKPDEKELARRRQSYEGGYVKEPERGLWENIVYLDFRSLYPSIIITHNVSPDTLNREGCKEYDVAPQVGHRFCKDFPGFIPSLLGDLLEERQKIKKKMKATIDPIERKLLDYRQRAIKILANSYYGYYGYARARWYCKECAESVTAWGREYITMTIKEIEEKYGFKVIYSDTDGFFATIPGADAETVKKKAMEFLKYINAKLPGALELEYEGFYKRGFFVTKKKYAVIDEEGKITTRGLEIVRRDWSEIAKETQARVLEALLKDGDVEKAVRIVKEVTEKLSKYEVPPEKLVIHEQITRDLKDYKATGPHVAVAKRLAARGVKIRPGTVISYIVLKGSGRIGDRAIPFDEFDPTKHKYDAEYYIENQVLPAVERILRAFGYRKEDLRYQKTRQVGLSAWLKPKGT
T2 sequence (P19821 whole entry, the tested form may be a part): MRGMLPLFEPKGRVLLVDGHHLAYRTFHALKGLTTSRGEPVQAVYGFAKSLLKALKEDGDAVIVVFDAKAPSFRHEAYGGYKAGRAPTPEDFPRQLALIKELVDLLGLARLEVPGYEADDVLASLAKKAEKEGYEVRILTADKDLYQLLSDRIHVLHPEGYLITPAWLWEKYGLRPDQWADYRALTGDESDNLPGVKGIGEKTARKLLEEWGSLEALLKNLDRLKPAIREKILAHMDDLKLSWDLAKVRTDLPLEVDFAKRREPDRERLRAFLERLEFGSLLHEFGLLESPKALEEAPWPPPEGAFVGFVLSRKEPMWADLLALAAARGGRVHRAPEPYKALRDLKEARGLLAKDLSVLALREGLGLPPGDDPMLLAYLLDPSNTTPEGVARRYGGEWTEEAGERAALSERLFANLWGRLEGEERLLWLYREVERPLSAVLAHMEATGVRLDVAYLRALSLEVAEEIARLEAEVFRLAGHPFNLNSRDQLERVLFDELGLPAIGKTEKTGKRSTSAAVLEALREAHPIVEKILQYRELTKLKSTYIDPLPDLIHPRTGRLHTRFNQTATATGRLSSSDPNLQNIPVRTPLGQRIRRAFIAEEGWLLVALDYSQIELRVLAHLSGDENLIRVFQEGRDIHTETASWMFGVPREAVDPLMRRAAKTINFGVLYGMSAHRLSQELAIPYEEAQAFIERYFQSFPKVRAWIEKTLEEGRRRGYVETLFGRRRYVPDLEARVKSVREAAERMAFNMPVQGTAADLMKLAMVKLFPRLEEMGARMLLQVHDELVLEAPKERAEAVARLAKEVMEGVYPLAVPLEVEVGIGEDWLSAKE

Substance: sodium alginate
- Amplification Results (KOD DNA Polymerase; Buffer I, 0.625 U KOD, primers λ1/λ8, 25 μl, amount added 1 μg): ++ (Intensive amplification being observed)
- Amplification Results (KOD DNA Polymerase; Buffer I, 0.625 U KOD, primers λ1/λ8, 25 μl, amount added 2.5 μg): ++ (Intensive amplification being observed)
- Amplification Results (KOD DNA Polymerase; Buffer II, 1.25 U KOD, primers λ1/λ8, 50 μl, amount added 2.5 μg): ++ (Intensive amplification being observed)
- Amplification Results (KOD DNA Polymerase; Buffer II, 1.25 U KOD, primers λ1/λ8, 50 μl, amount added 5 μg): ++ (Intensive amplification being observed)
- Amplification Results [1]: + (Amplification being observed)
- Amplification Results (KOD dash DNA Polymerase): ++ (Intensive amplification being observed)
